Patent US20240262812A1, “N-SUBSTITUTED PHENYLSULFONAMIDE COMPOUND AND USE THEREOF” (Shanghai Leado Pharmatech Co., Ltd., priority 2021, published 2024)

Experiments:
chemokine receptor CCR9 = biological target: T1, chemokine receptor CCR9 (Homo sapiens, UniProt P51686); assay: CCR9 antagonistic activity, calcium flow (Fluo-4, FlexStation), CCL25 agonist; assay type: cell-based; details: antagonistic mode, CCL25 150 nM; for inhibition at 100 µM: read-out: Inhibition rate (%) (100 μM)
T1 construct: expressed in transfected cells
T1 sequence (P51686 1-369): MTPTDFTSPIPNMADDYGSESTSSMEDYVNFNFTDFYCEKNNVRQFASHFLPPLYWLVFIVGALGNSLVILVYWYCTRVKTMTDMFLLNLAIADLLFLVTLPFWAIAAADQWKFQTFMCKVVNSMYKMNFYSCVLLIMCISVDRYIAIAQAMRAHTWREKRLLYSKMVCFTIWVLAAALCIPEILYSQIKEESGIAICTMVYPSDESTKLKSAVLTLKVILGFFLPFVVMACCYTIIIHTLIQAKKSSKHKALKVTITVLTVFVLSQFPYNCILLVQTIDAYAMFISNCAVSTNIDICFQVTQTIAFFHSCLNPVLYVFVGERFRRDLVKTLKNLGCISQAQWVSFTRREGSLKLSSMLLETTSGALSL
Description: 2.1 Main reagents: DMEM culture medium (GIBCO); dimethyl sulfoxide (Sigma); FLUO-4, AM (Invitrogen) 2.2 Main instrument: Flexstation-3 (Molecular Devices) The test concentration gradient of the compound and replicates were set according to the requirement of testing ICSO. All test substances with 8 concentrations were set, with 3 replicates for each concentration. By establishing a cell line that cotransformed the receptor and G16, the receptor being activated can induce the activation of Gα16 protein, thereby activating phospholipase C (PLC) to produce IP3 and DAG. IP3 can bind to the IP3 receptor on the intracellular endoplasmic reticulum and mitochondria, leading to the release of intracellular calcium. Therefore, measuring changes in intracellular calcium can serve as a method for detecting the activation status of target receptor. Fluo-4/AM is a calcium fluorescent probe indicator used to measure calcium ion, as a non-polar lipophilic compound, under the action of cell lipase after entering cells, the AM group dissociates and releases Fluo-4; since Fluo-4 is a polar molecule, it is not easy to pass through lipid bilayers, allowing it to remain in the cell for a long time. Ultimately, the level of G protein activation can be reflected by measuring the excited fluorescence intensity. […] Cells stably expressing the target receptor/Ga16 were planted on a 96 well plate and cultured overnight. 2. The culture solution was removed from the well planted cells, then 40 μL/well of freshly prepared dye was added. The mixture was incubated at a constant temperature in a 37° C. incubator for 40 minutes. 3. The drug to be tested was diluted with calcium buffer and mixed well. 4. The dye was absorbed and discarded. After washed once with freshly prepared calcium buffer, 50 μL of calcium buffer that dissolved the drug to be tested was added for replacement. 5. The FlexStation II instrument was used for detection. Starting from the 15th second, […] dissolved with known agonist was automatically added by the instrument, and finally the fluorescence value at 525 nm was readed. The following formula was used to calculate the cell response rate (% Response) for each sample under each concentration. […] IC50 value was calculated using GraphPad Prism.

[1] = test system: DSS induced inflammatory colitis in C57BL/6 mice; assay: DSS induced inflammatory colitis model in C57BL/6 mice; assay type: in vivo, mouse; details: 10 mg/kg oral once a day, day 0 to day 7; for DAI score: FIG. 3; for length of the colorectum / weight of the colorectum: FIG. 4; for level of colorectal inflammatory factor IL-10 (ELISA) / level of colorectal inflammatory factor TNF-α (ELISA): FIG. 5
Method: The therapeutic effect of compounds prepared in some examples of the present invention on DSS (dextran sulfate sodium) induced inflammatory colitis in C57BL/6 mice (corresponding to ulcerative colitis) was investigated.
• Animal species and strains: C57BL/6 mice • Administration record: No administration history • Gender and weight: Female, about 18-20 g • Breeding party/supplier: Shanghai SLAC Laboratory Animal Co., Ltd • Adaptation period: 7 days • Room: SPF Rooms • Indoor temperature: 20-26° C. • Indoor relative humidity: 40-70% • Lighting: Fluorescent lighting, 12-hour illumination (08:00-20:00) and 12 hour no illumination • Animal feeding: 2-5 mice per cage (same administration group) • Food: Unlimited access to feed (disinfected by irradiation, Shanghai SLAC Laboratory Animal Co., Ltd, China) • Water: Unlimited access to drinking water (tap water purified through ultra-pure water filtration system)
A total of 80 C57BL/6 mice were purchased from Shanghai SLAC Laboratory Animal Co., Ltd, of which 10 were used as backup animals to select animals with suitable weight range included in the groups. All backup animals are not subjected to any administration or modeling procedures and will be euthanized uniformly at the end of the experiment.
70 animals were selected on Day 3 and randomly grouped based on animal weight using BioBook software to ensure that the weight values of each group of animals were similar to reduce bias.
3.1 An appropriate amount of DSS powder was dissolved in high-pressure sterilized drinking water solvent and a 3% DSS solution was prepared.
3.2 Induction of Colitis: On day 3, 70 mice were randomly divided into 7 groups according to Table 7. From day 0 to day 4, mice in groups 2 to 7 drank 3% DSS aqueous solution for 5 days, followed by drank normal water ad libitum (from day 5 to before autopsy). The day of initial administration of DSS drinking water was counted as day 0. DSS aqueous solution was wrapped in opaque dark bags to ensure light avoidance. DSS aqueous solution was replaced every 2 days.
3.3. Dosage regimen: See Table 7.
Changes in body weight, feces, and bleeding of all groups of mice were record daily. Three items were scored according to Table 8 below, and the scores were added together to form the daily disease activity index (DAI) score.
After blood collection, the animals were euthanized by inhaling excessive CO2 and dislocation of cervical vertebra. Then the abdominal cavity was cut open and the colorectum was taken out. After removing the tissue around the colon, the longitudinal length from the ileocecal valve to the anus was measured. Afterwards, the colorectum was cut open and the contents of feces were scored. Finally, the intestinal contents were cleaned, and the entire colon was photographed and weighed.
Commercially available ELISA analysis kits were used to analyze the colorectal inflammation factors TNF-α and IL-10 in each group.
The health status of animals and their comprehensive response to DSS and drugs were observed every day. Any abnormal appearance or behavior other than those related to the development of the disease was recorded in detail in the Pharmalegacy Biological Experimental Observation Form.
The data was calculated as mean±standard error. Statistical analysis was performed using Graphpad Prism and SPSS software. The specific data is presented in the form of charts. When P<0.05, it is considered statistically significant.

Row | Structure (SMILES) | inhibition at 100 µM (chemokine receptor CCR9) | IC50 (chemokine receptor CCR9) | DAI score [1] | length of the colorectum [1] | weight of the colorectum [1] | level of colorectal inflammatory factor IL-10 (ELISA) [1] | level of colorectal inflammatory factor TNF-α (ELISA) [1]
1 | CNCc1ccc(NS(=O)(=O)c2ccsc2)c(-c2ccco2)c1 [IA-30] | 3% | > 100 µM | significantly reduce | increase | decrease | significantly reduce | significantly reduce
2 | CNCc1ccc(-c2nccs2)c(NS(=O)(=O)c2ccccc2)c1 [IA-51, N-(5-((methylamino)methyl)-2-(thiazol-2-yl)phenyl)benzenesulfonamide] | 3% | > 100 µM | significantly reduce | increase | decrease | significantly reduce | significantly reduce
3 | CNCc1ccc(-c2cc[nH]n2)c(NS(=O)(=O)c2ccccc2)c1 [IA-55, N-(5-((methylamino)methyl)-2-(1H-pyrazol-3-yl)phenyl)benzenesulfonamide] | 8% | > 100 µM | significantly reduce | increase | decrease | significantly reduce | significantly reduce
4 | NCc1ccc(NS(=O)(=O)c2ccsc2)c(-c2ccco2)c1 [ID-5] | 8% | > 100 µM | significantly reduce | increase | decrease | significantly reduce | significantly reduce
